# Assay results from patent US20240139149A1, “THERAPEUTIC USES OF UROLITHIN DERIVATIVES” (Vandria SA, priority 2022, published 2024).
# Assays:
# mouse T lymphocytes [1] = assay: Mitochondrial content (Mitotracker positive cells) in mouse T lymphocytes; type: cell-based; conditions: 2 μM, 72 h; for percentage of Mitotracker positive cells: DMSO 44%
# Method: Splenic murine T cells were isolated from mice aged 6-20 weeks by negative selection with EasySep mouse T cell isolation kit (Stem cell) according to the manufacturer's instructions. T cell activation was initiated using CD3/CD28 activation beads (11456D; ThermoFisher Scientific) at a ratio of 25 μl dynabeads per 0.5×10^6 T-cells. Cells were activated with test compounds at 2 μM or DMSO in T cell activation Medium (RPMI (ThermoFisher Scientific) 10% FBS (South America origin), 10 mM Hepes (Sigma), 1× Non-Essential Amino Acid, 1 mM Sodium Pyruvate, 50 μM β-Mercaptoethanol, 100 U/ml penicillin, 100 μg/ml streptomycin and 2 mM Glutamax (ThermoFisher Scientific) for 72 h. For subsequent analysis, activating beads were magnetically removed prior staining.
# For flow cytometric analysis of mitochondria 500 μl of Mitotracker Red (200 nM; ThermoFisher) was applied followed by surface staining.
# Cell doublets and cells debris were excluded from the analysis by gating FSC-A vs FSC-H followed by SSC-A vs SSC-H dot plots and FSC-A vs SSC-A dot plots, respectively. eFluor 780 highly positive cells, i.e, dead cells, were gated out of the analysis. Data was acquired on Canto II (BD), Fortessa (BD) and Aurora (Cytek) cytometers and analyzed with FlowJo.
# human T lymphocytes = assay: Proportion of human T memory stem cells (Tscm); type: cell-based
# Excerpt: Human peripheral blood mononuclear cells were purified with a Ficoll-Paque (GE healthcare) gradient. T cells were enriched with EasySep Human T Cell Isolation Kit (StemCell) and activated with dynabead Human T-Activator CD3/CD28 for T Cell Expansion and Activation Kit (11131D; ThermoFisher Scientific). Cells were activated with compound 66 at the indicated concentration or DMSO. Tscm cells are identified and counted based on the expression of five different markers: CD45RA^+CCR7^HiCD62L^+CD95^+CD8^+.
# Human peripheral blood mononuclear cells were purified with a Ficoll-Paque (GE healthcare) gradient. T cells were enriched with EasySep Human T Cell Isolation Kit (StemCell) and activated with dynabead Human T-Activator CD3/CD28 for T Cell Expansion and Activation Kit (11131D; ThermoFisher Scientific). Cells were activated with the 77 at 400 nM or DMSO.
# Staining was performed as described in Example 15.
# (§1) Flow cytometry and analysis was performed as described in Example 14.
# mouse T lymphocytes [2] = assay: Proportion of mouse T memory stem cells (Tscm); type: cell-based; conditions: 2 μM, 72 h
# Method: T cells were isolated and stimulated as described in Example 14.
# Tscm represent a subset of minimally differentiated T cells, which share a CD44^loCD62L^hi phenotype with naïve T cells, but are phenotypically distinct by expressing high levels of Sca1 (Gattinoni et al., 2009). Tscm are therefore identified as CD44^−CD62L^+Sca1^hi cells.
# as §1
# [3] = system: rat model of heart failure; assay: Rat model of heart failure after myocardial infarction (LAD ligation), echocardiography; type: in vivo
# Excerpt: Generation of a rat model of cardiac impairment following myocardial infarction Fifty (50) Wistar male rats from Janvier Labs (France), 6-week-old (200-224 g on the day of arrival), were included in this study. Acclimatization of animals lasted at least 5 days. During the study, animals had free access to food and drinking water ad libitum.
# Myocardial infarction (MI) was induced by chronic left anterior descending coronary artery (LAD) ligation performed at DO. Rats were anesthetized with an intraperitoneal (IP) injection of Medetomidine (0.5 mg/kg) and Ketamine (50 mg/kg), intubated and ventilated at 10 mL/kg tidal volume and 70-80 cycles/min. Body temperature was maintained between 36.5° C. and 37.5° C. via a thermoregulated heating pad connected to a rectal probe. A left lateral thoracotomy was carefully performed so as to expose the heart. Then, a suture was placed around the LAD (4/0 Silk, Ethicon), around 2 mm below the left atrium and close to the interventricular junction, in order to obtain infarct size (IS) near 40% of the total left ventricular (LV) area. Chest was closed, air was expelled from the rib cage to avoid pneumothorax and quick reanimation was performed using atipamezole hydrochloride (IM, 0.5 mg/mL, Zoetis). A peri-operative care of the animals was performed during the surgery: • Pre-operative care by one carprofen injection (SC, 5 mg/kg, Pfizer) and one lidocaine injection on the site of incision (SC, 4 mg/kg, Vetoquinol). • Post-operative care: 3 injections of buprenorphine (SC, 0.01 mg/kg, Axience) administered after awakening and during the first 24 hours after the surgery.
# Rats underwent transthoracic echocardiographic examination in order to assess cardiac morphology and function in a noninvasively way. […]
# Left ventricle (LV) function was assessed using ejection fraction (EF), calculated as follow: […]
# Statistical analysis was performed with the Graphpad 6 software. […] First, differences were assessed between Sham/Vehicle and MI/Vehicle using an unpaired ttest followed by the appropriate post-hoc test. […]
# APTK-OVA tumors = assay: Adoptive transfer of UA-conditioned OT-1 T cells into Rag1−/− mice; type: in vivo, mouse; conditions: seven days after transfer into Rag1−/− mice, T cells cultured 48 hours with UA
# Method: For adoptive cell transfer, purified splenic T cell from OT1 mice were isolated and activated using αCD3/αCD28 stimulation beads for 48 h. After magnetic bead removal, 1×10^6 T of activated T cell were intravenously injected into Rag1−/− recipients. To study survival of transferred T cells, stimulated OT-1 T cells were injected into mice without tumors. Subsequently, after 7 days, spleens were isolated and splenocytes were stained for the CD8+ subsets as described below. To understand antitumor immunity conferred by transferred OT-1 lymphocytes, cells were injected into mice carrying APTK-OVA tumors 10 days after subcutaneous organoid transplantation. Tumor growth was assessed as described above. Mice were kept under regular chow food for the T cell adoptive transfer experiment and sacrificed collectively when maximum tumor diameter extended 1.5 cm.
# Tumors were minced and digested with Tumor & Tissue Dissociation Reagent (BD Horizon) for 30 min. The remaining organ pieces were filtered through a 70 µm cell strainer. Cells were then washed with PBS 1% BSA and 2 mM EDTA. Immune cells were enriched on a 30%/40%/75% Percoll gradient after a 1700 rpm 17 min centrifugation. Then, tumor immune filtrates or activated T cells were stained with Fixable Viability Dye-eF780 (65-0865-14; eBioscience), αCD45-FITC (30-F11; 11-0451-85; eBioscience), αCD11b-BV650 (M1/70; 56340; BD) α-CD11c-BV785 (HL3; 563735; BD), aLy6G-BV605 (53-6.7; 563005; BD), aLy6C-AF700 (HK1.4; 128024; Biolegend), aF4/80-PE (BM8; 12-4801-82, eBioscience), aPD-L1-PECy7 (MIH5; 25-5982-80, eBioscience); or with Fixable Viability Dye-eF780 (ebioscience), αCD45-BV786 (30-F11; 564225; BD), αCD4-BUV496 (GK1.5; 564667; BD), αCD8-BV605 (100744; Biolegend), aPD1-APC (J43; 17-9985-82; eBioscience), aTIM-3-PECy7 (RMT3-23; 119715; Biolegend), aCTLA4-PE (UC10-4B9; 106305; Biolegend) and aLag3-BV421 (C9B7W; 125221, Biolegend); or with Fixable Viability Dye-eF780 (eBioscience), αCD4-FITC (H129.19; 553650; BD), αCD8-APC (53-6.7; 17-0081-83; eBioscience), αCD44-AF400 (IM7; 103026; Biolegend), αCD62L-BV785 (MEL-14; 104440; Biolegend), αSca-1-PerCP-Cy5.5 (D7; 45-5981-82; eBioscience), αCD95-PE (Jo2; 554258; BD); or with Fixable Viability Dye-eF780 (eBioscience), αCD8-BV650 (53-6.7; 563234; BD), αCD4-BUV496 (GK1.5; 564667; BD), αCD127-APC (A7R34; 17-1271-82; eBioscience), αCD95-FITC (SA367H8;152605; Biolegend), αCD44-AF400 (IM7; 103026; Biolegend), αCD62L-BV785 (MEL-14; 104440; Biolegend), αSca-1-PerCP-Cy5.5 (D7; 45-5981-82; eBioscience) followed by intracellular staining of aTCF1-PE (S33-966; 564217; BD), or PGC-1α (sc-518025; D-5; santa cruz), or aCyclinD1 (MA5-28534, DCS-6; Invitrogen) with transcription factor buffer set kit (BD Biosciences). To study cytokine expression, tumor immune infiltrates were stimulated ex vivo with 20 ng/mL PMA and […] Ionomycin (Sigma) for 3 h in T cell activation medium with Brefeldin A (Biolegend). For T cell in vitro activation experiments over several days, Brefeldin A was added to the medium for the last 3 hours. Cells were then stained with Fixable Viability Dye-eF780 (eBioscience), αCD8-PeCy7 (53.6-7; 100722; Biolegend), αCD4-AF700 (GK1.5; 100429; Biolegend), and intracellular staining for cytokine assessment was performed with BD Cytofix/Cytoperm (BD) with 20 min fixation and overnight incubation with αGranzyme B-FITC (GB11; 515403; Biolegend), αIFNγ-PerCPCy5.5 (XMG1.2; 45-7311-82; eBioscience) and αTNFa-BV711 (MP6-XT22; 563944; BD). For flow cytometric analysis of mitochondria and lysosomes 500 μl of Mitotracker Red (200 nM; ThermoFisher) or Lysotracker Red DND-99 (75 nM; ThermoFisher) were applied followed by surface staining. To study changes in mitochondrial membrane potential, Mitoprobe TMRM kit (ThermoFisher) was used according to the manufacturer's instructions. Cell proliferation was assessed by CellTrace Violet (Invitrogen, C34557) at a concentration of […] according to manufacturer's instructions. […]
# [4] = MI rats, 0.5 mg/kg oral gavage, Month 2, M-mode, vs MI/Vehicle
Compound,increase in the percentage of Mitotracker positive cells vs DMSO (mouse T lymphocytes [1]) [%],percentage of Mitotracker positive cells (mouse T lymphocytes [1]) [%],"increase in Tscm proportion of CD8+ lymphocytes (human T lymphocytes; 400 nM, 72 h, vs DMSO) [fold]",increase in the percentage of Tscm in CD8+ cells vs DMSO (mouse T lymphocytes [2]) [%],percentage of Tscm in CD8+ cells (mouse T lymphocytes [2]; DMSO 16.7%) [%],Tscm proportion of CD3+ lymphocytes (human T lymphocytes; indicated concentration vs DMSO),"LV systolic dysfunction induced by MI ([3]; 0.5 mg/kg, 2 months after LAD ligation)","ejection fraction (EF) [3, 4]","fractional shortening (FS) [3, 4]",number of engrafted CD8+ T cells (APTK-OVA tumors)
"CN1C(=O)Cc2cc(O)ccc2-c2ccc(O)cc21 [compound 77, 3,9-dihydroxy-5-methyl-5,7-dihydro-6H-dibenzo[b,d]azepin-6-one]",43.4,63.1,~3,,,,,,,
"O=C1OCc2cc(O)ccc2-c2ccc(O)cc21 [compound 66, 3,9-dihydroxydibenzo[c,e]oxepin-5(7H)-one]",27.5,56.1,,69,28.2,significant increase,able to prevent,significant increases,significant increases,
O=c1oc2cc(O)ccc2c2ccc(O)cc12 [Urolithin A],,,,,,,,,,significantly higher
